ChEMBL document CHEMBL5390272, “Discovery of a potent and selective human AC2 inhibitor based on 7-deazapurine analogues of adefovir” (Bioorg Med Chem, 2023)

Experiments:
HL-60 = test: Cytotoxicity against human HL-60 cells by CellTiter-Glo 2.0 assay; format: functional, cell-based
HeLa S3 = test: Cytotoxicity against human HeLa S3 cells by CellTiter-Glo 2.0 assay; format: functional, cell-based
HepG2 = test: Cytotoxicity against human HepG2 cells by CellTiter-Glo 2.0 assay; format: functional, cell-based
[1] = Inhibition of Bordetella pertussis Adenylate cyclase toxin in mouse J774.A1 cells preincubated for 5 hrs followed by ACT addition and measured after 30 mins by CatchPointcAMP immunoassay method; format: cell-based
[2] = Cytotoxicity against mouse J774.A1 cells assessed as cell viability at 10 uM incubated for 5 hrs by Cell Titer-Glo Luminescent Cell Viability assay relative to control; format: toxicity, cell-based; conditions: read-out: Activity
HEK293 = test: Cytotoxicity against AC1 expressed HEK293 cells by CellTiter-Glo 2.0 assay relative to control; format: toxicity, cell-based; parameters: concentration or dose not given beside the values; conditions: human
CCRF-CEM = test: Cytotoxicity against human CCRF-CEM cells by CellTiter-Glo 2.0 assay; format: functional, cell-based
NHDF = test: Cytotoxicity against human NHDF cells by CellTiter-Glo 2.0 assay; format: toxicity, cell-based
[3] = biological target: T1, Calmodulin-sensitive adenylate cyclase (Bacillus anthracis, UniProt P40136); test: Inhibition of Bacillus anthracis Edema factor
T1 sequence (P40136 whole entry): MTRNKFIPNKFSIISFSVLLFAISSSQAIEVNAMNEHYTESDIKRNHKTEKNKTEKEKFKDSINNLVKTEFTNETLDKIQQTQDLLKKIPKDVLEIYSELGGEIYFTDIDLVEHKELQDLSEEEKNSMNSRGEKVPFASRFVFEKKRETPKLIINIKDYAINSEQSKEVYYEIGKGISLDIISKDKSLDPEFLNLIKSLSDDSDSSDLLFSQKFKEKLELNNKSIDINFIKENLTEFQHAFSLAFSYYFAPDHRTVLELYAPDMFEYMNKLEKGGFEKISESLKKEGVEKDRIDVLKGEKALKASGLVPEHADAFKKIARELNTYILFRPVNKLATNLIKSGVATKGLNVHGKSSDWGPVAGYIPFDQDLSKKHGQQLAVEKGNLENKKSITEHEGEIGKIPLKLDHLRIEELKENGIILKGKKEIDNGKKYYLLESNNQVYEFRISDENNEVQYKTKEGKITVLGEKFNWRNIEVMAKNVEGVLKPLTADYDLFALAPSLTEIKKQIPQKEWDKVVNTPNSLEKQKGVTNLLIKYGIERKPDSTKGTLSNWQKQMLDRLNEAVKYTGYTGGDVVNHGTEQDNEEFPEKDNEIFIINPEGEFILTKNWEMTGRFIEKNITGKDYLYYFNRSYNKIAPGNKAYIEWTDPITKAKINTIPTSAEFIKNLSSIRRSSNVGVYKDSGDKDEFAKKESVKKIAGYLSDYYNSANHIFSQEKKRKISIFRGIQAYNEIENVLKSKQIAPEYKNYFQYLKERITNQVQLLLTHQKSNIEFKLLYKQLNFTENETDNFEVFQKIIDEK

| SMILES | IC50 (HL-60) [µM] | IC50 (HeLa S3) [µM] | IC50 (HepG2) [µM] | IC50 [1] [µM] | viability at 5 h, 10 µM [2] [%] | Activity (HEK293) [%] | IC50 (CCRF-CEM) [µM] | IC50 (NHDF) [µM] | IC50 [3] [µM] |
| --- | --- | --- | --- | --- | --- | --- | --- | --- | --- |
| C=C(C)c1cn(CCOCP(=O)(N[C@@H](Cc2ccccc2)C(=O)OC(C)C)N[C@@H](Cc2ccccc2)C(=O)OC(C)C)c2ncnc(N)c12 | 4.62 | > 10 | 8.73 | > 10 | 81 | 31 | 5.64 | > 10 | – |
| CC(C)OC(=O)[C@H](Cc1ccccc1)NP(=O)(COCCn1cc(C(C)C)c2c(N)ncnc21)N[C@@H](Cc1ccccc1)C(=O)OC(C)C | 7.34 | > 10 | > 10 | > 10 | 121 | 51 | 6.54 | > 10 | – |
| CC(C)OC(=O)[C@H](Cc1ccccc1)NP(=O)(COCCn1cc(-c2cccc(C(N)=O)c2)c2c(N)ncnc21)N[C@@H](Cc1ccccc1)C(=O)OC(C)C | 5.75 | > 10 | > 10 | 2.5 | 85 | 94 | > 10 | > 10 | – |
| CC(C)OC(=O)[C@H](Cc1ccccc1)NP(=O)(COCCn1cc(-c2cccc(C#N)c2)c2c(N)ncnc21)N[C@@H](Cc1ccccc1)C(=O)OC(C)C | 3.22 | 10.1 | 9.43 | 1.42 | 111 | 29 | 3.85 | > 10 | – |
| CC(C)OC(=O)[C@H](Cc1ccccc1)NP(=O)(COCCn1cc(-c2ccccc2)c2c(N)ncnc21)N[C@@H](Cc1ccccc1)C(=O)OC(C)C | 4.73 | 5.28 | 6.58 | 13.3 | 82 | -18 | 4.74 | > 10 | – |
| CC(C)OC(=O)[C@H](Cc1ccccc1)NP(=O)(COCCn1cc(-c2ccc([N+](=O)[O-])cc2)c2c(N)ncnc21)N[C@@H](Cc1ccccc1)C(=O)OC(C)C | 4.58 | 2.95 | > 10 | 1.26 | 113 | 97 | 4.08 | > 10 | – |
| Cc1cn(CCOCP(=O)(O)OP(=O)(O)OP(=O)(O)O)c2ncnc(N)c12 | – | – | – | 0.062 | – | – | – | – | 0.108 |
| CCOC(=O)[C@H](C)NP(=O)(COCCn1cc(-c2ccc(OC)cc2)c2c(N)ncnc21)Oc1ccccc1 (stereo partly specified) | > 10 | > 10 | > 10 | 5.41 | 104 | – | > 10 | > 10 | – |
| CC(C)OC(=O)[C@H](Cc1ccccc1)NP(=O)(COCCn1cc(-c2ccccn2)c2c(N)ncnc21)N[C@@H](Cc1ccccc1)C(=O)OC(C)C | 5.18 | 7.86 | > 10 | 1.06 | 104 | -17 | 5.77 | > 10 | – |
| CC(C)OC(=O)[C@H](Cc1ccccc1)NP(=O)(COCCn1cc(-c2cccc(-c3nn[nH]n3)c2)c2c(N)ncnc21)N[C@@H](Cc1ccccc1)C(=O)OC(C)C | > 10 | > 10 | > 10 | > 10 | 94 | 110 | > 10 | > 10 | – |
| COc1ccc(-c2cn(CCOCP(=O)(N[C@@H](Cc3ccccc3)C(=O)OC(C)C)N[C@@H](Cc3ccccc3)C(=O)OC(C)C)c3ncnc(N)c23)cc1 | 6.52 | – | > 10 | 1.49 | 112 | -17 | 5.81 | > 10 | – |
| Cc1cn(CCOCP(=O)(N[C@@H](Cc2ccccc2)C(=O)OC(C)C)N[C@@H](Cc2ccccc2)C(=O)OC(C)C)c2ncnc(N)c12 | 7.33 | > 10 | 9.73 | 1.47 | 112 | 93 | > 10 | > 10 | – |
| CC(C)OC(=O)[C@H](Cc1ccccc1)NP(=O)(COCCn1cc(C#Cc2ccccc2)c2c(N)ncnc21)N[C@@H](Cc1ccccc1)C(=O)OC(C)C | 4.75 | 5.3 | 7.24 | > 10 | 116 | -9 | 4.49 | > 10 | – |
